# Assay results: patent US20160106107A1, “Compositions and Methods for Treating Microorganism” (priority 2006, published 2016)
# Where “and” joins values, the source holds several entries; their conditions need not be identical. Identical values can stand only once. Like-named read-outs stand apart in the source and are kept apart here.
# What was measured:
# [1] = system: Pseudomonas syringae pv. phaseolicola HB-9 biofilm
# [2] = system: Pseudomonas syringae pv. phaseolicola HB-9 planktonic
# [3] = system: Erwinia carotovora subsp. carotovora (Ecc) biofilm; experiment: Ecc biofilm susceptibility, 24 h contact time; format: cell-based; conditions: for Ecc biofilm cell counts (unlabelled fourth line = mean of 3) / Log reduction of Ecc biofilms / Ecc biofilm cell counts (single replicates): 24 h contact time
# Excerpt: Carotovora (Ecc), the Soft Rot of Vegetables Pathogen, in Comparison to Nanocrystalline Silver Powder
# [4] = system: naturally occurring microorganisms (bacteria and fungi) on bean seed surface; conditions: for Bacterial reduction / Fungal reduction / Total microbial reduction: vs untreated seeds, Experiments 1-3
# Excerpt: They included seeds that would normally be discarded during processing in a commercial seed treatment facility—damaged, discoloured, shrivelled or small seeds. Due to the fact they were not cleaned these seeds still contain soil, dirt, plant debris, etc. Therefore, this seed lot was expected to provide a good model for a high natural microbial challenge, with good diversity of organisms and high microbial recovery expected.
# These seeds were processed and cleaned in a commercial seed treatment facility. Processing leads to rejection of small, damaged, and/or discoulored seeds, and thus a healthier overall seed lot. After processing, seeds were washed and cleaned, resulting in a significant reduction in soil, dirt or debris.
# Experiments were conducted by treating lots of ‘Othello’ and ‘AC Polaris’ seeds with challenges described in Table 10. Seeds were placed individually onto wells of 12-well microtiter plates and treated for 1 h with silver and/or water. After treatment, seeds were rinsed by dipping into fresh phosphate buffer and subsequently transferred to a new 12-well microtiter plate containing fresh phosphate buffer and sonicated for 15-30 min. Sonication allowed for surviving bacterial and fungal to be removed from the seed surface and recovered into the liquid. After 6 days, each of the wells containing seeds were scored based on both: • the turbidity of the liquid in which they were originally immersed for treatment, on day 6. • seed surface area covered by bacterial and/or fungal colonization, also on day 6.
# Six seeds were scored in each experiment and each experiment was repeated 3 times independently. Numbers presented on Tables 11, 13, and 15 represent the mean of 6 scores. […] Total microbial scores (bacteria and fungi together) and are represented as percentage of killing on Tables 12, 14, and 16.
# healthy dry bean seed = experiment: Germination of healthy dry bean seed; format: in vivo
# Orford (Soybean) seeds = conditions: for % of seeds germinated: Day 7 (speed of germination); for % germination: Day 14
# Excerpt: Germination on blotters was scored at 7- and 14-days. Emergence from soil was scored at 21- and 28-days.
# To treat seeds, one hundred seeds were placed in a 50-mL Falcon tube and combined with the treatment solution. Seeds were mixed with the treatment for 5-min by gently rolling and inverting the Falcon tube. Coated seeds were placed in an open Petri plate for 30-min to dry. Seeds were sown 10-per pot, set in a greenhouse, and maintained under standard conditions with mercury lamp lighting supplementing daylight from 3:00 pm to 10:00 pm.
# Stir constantly. 5% solution—after the 10% solution has equilibrated for 15-min, add 0.5-mL of 10% solution to 0.5-mL of sterile water. Stir constantly. 2.5% solution—add 0.25-mL of 10% solution to 0.75-mL of sterile water. Stir constantly. 1% solution—add 0.1-mL of 10% solution to 0.9-mL of sterile water. Stir constantly. […] Gently roll and invert the tube for 5 min to evenly coat each seed without causing damage. Remove seeds from tube by pouring carefully into an empty Petri plate. Leave exposed (lid off) and air dry seeds for 30 min.
# (1) Germination: Place 50 seeds from each treatment onto 25 individual moistened blotters in large Petri plates. Incubate at room temperature for 2-weeks with or without light. Score germination at 7- and 14-days. (2) Emergence: Sow 50 seeds from each treatment into five pots (10-seeds per pot and five pots per treatment). Place in a greenhouse at 22° C. with ample air circulation. Use mercury lamps to supplement lighting (on at 3:00 pm; off at 10:00 pm) if necessary. For pre-emergent plants, water pots as needed to keep soil moist but not wet. Water emergent plants daily. Score emergence at 21 and 28 days.
# After seeds were treated and air-dried, they were sown in potted, non-sterile soil in a greenhouse. Alternatively they were placed on moist blotters in large Petri plates.
# [5] = system: Pseudomonas syringae pv. phaseolicola on bean seed surface; conditions: Experiments 1-3; for Total microbial score: day 6, bacteria + fungi
# [6] = system: dry bean (Phaseolus vulgaris L) seeds, cultivar Othello; experiment: Germination of dry bean seeds with aqueous seed coating under high bacterial load; format: in vivo; conditions: for # seeds germinated / % germination / Day to 25% germination: high bacterial load
# Protocol: The efficacy of high valency silver ions produced by oxysilver nitrate was evaluated as a seed treatment on diseased dry bean seeds. The oxysilver nitrate was applied as an aqueous seed coating on the germination of dry bean (Phaseolus vulgaris L).
# Seeds were placed on blotters in Petri plates, were soaked in an excess of water for 3 days, then drained on day 4. The 3-day period of excess water created a very high bacterial load′ on the germinating seeds and high disease pressure due to pathogenic, saprophytic and soft-rot bacteria. This disease pressure was so extreme that the germination rates for experiments 2-5 were essentially zero due to being overwhelmed by the microbial growth.
# [7] = lowest concentration (5000 ppm)
# [8] = AC Polaris Inoculated, vs untreated seeds
# [9] = AC Polaris seeds, inoculated w/ bacteria, 0.1%, 1 h, scored day 6 on scale 0-5, mean of 6 seeds
# [10] = Othello Inoculated, vs untreated seeds
compound,measurement,setting,value
O=S(=O)([O-])[O-].[Cu+2] [Copper sulfate],PspHB-9 Biofilm cell counts,[1]; 1250 ppm,5.15 log10
same,PspHB-9 Biofilm cell counts,[1]; 2900 ppm,0 log10
same,PspHB-9 Biofilm cell counts,[1]; 4600 ppm,0 log10
same,reduction of biofilms,[1]; [7],17%
same,concentration required to be effective,[1]; planktonic cells and biofilms,11460 ppm
same,PspHB-9 Planktonic cell counts,[2]; 1250 ppm,2.95 log10
same,PspHB-9 Planktonic cell counts,[2]; 2900 ppm,0 log10
same,PspHB-9 Planktonic cell counts,[2]; 4600 ppm,0 log10
same,reduction of planktonics,[2]; [7],~48%
oxysilver nitrate [High valency silver],Ecc biofilm cell counts (unlabelled fourth line = mean of 3),[3]; 50 ppm,1.53 log10
same,Log reduction of Ecc biofilms,[3]; 50 ppm,2.23
same,Ecc biofilm cell counts (single replicates),"[3]; 50 ppm, listed as Oxy",1.60 log10 and 1.00 log10 and 2.00 log10
same,Ecc biofilm cell counts (unlabelled fourth line = mean of 3),[3]; 100 ppm,0.65 log10
same,Log reduction of Ecc biofilms,[3]; 100 ppm,3.11
same,Ecc biofilm cell counts (single replicates),"[3]; 100 ppm, listed as Oxy",0 log10 (2×) and 1.95 log10
same,Ecc biofilm cell counts (unlabelled fourth line = mean of 3),[3]; 200 ppm,0.70 log10
same,Log reduction of Ecc biofilms,[3]; 200 ppm,3.06
same,Ecc biofilm cell counts (single replicates),"[3]; 200 ppm, listed as Oxy",0 log10 (2×) and 2.11 log10
same,Ecc biofilm cell counts (single replicates),[3]; 500 ppm,0 log10
same,Ecc biofilm cell counts (unlabelled fourth line = mean of 3),[3]; 500 ppm,0.00 log10
same,Log reduction of Ecc biofilms,[3]; 500 ppm,3.76
same,anti-microbial efficacy compared with nanocrystalline silver,[3]; plant pathogenic Erwinia spp.,as efficacious as nanocrystalline silver
same,PspHB-9 Biofilm cell counts,[1]; 100 ppm,0 log10
same,PspHB-9 Biofilm cell counts,[1]; 500 ppm,0 log10
same,PspHB-9 Biofilm cell counts,[1]; 1000 ppm,0 log10
same,eradication of biofilm,[1]; at the lowest concentration,100%
same,Bacterial reduction,[4]; AC Polaris Non-inoculated,67% and 90% and 100%
same,Fungal reduction,[4]; AC Polaris Non-inoculated,100% and 62%
same,Total microbial reduction,[4]; AC Polaris Non-inoculated,81% and 78% and 100%
same,Bacterial reduction,[4]; Othello Non-inoculated,80% and 62% and 88%
same,Fungal reduction,[4]; Othello Non-inoculated,70% and 100% and 74%
same,Total microbial reduction,[4]; Othello Non-inoculated,75% and 86% and 81%
same,bactericidal and fungicidal efficacy,"[4]; various bacterial and fungal species associated with seed surfaces, 3 independent replications",good bactericidal and fungicidal efficacy
same,# seeds germinated,healthy dry bean seed; 0.1%,84
same,% germination,healthy dry bean seed; 0.1%,84%
same,Day to 50% germination,healthy dry bean seed; 0.1%,6.5 days
same,Day to 100% germination,healthy dry bean seed; 0.1%,9.0 days
same,# seeds germinated,healthy dry bean seed; 0.5%,86
same,% germination,healthy dry bean seed; 0.5%,86%
same,Day to 50% germination,healthy dry bean seed; 0.5%,6.0 days
same,Day to 100% germination,healthy dry bean seed; 0.5%,9.0 days
same,# seeds germinated,healthy dry bean seed; 1%,89
same,% germination,healthy dry bean seed; 1%,89%
same,Day to 100% germination,healthy dry bean seed; 1%,9.0 days
same,# seeds germinated,healthy dry bean seed; […],81
same,% germination,healthy dry bean seed; […],81%
same,Day to 100% germination,healthy dry bean seed; […],9.0 days
same,germination compared with water control or Apron Maxx RTA,healthy dry bean seed; healthy dry bean seed,more rapid germination and higher percent germination rate
same,% of seeds germinated,Orford (Soybean) seeds; 0.1%,28%
same,% germination,Orford (Soybean) seeds; 0.1%,50%
same,% of seeds germinated,Orford (Soybean) seeds; 0.5%,34.5%
same,% germination,Orford (Soybean) seeds; 0.5%,58%
same,% of seeds germinated,Orford (Soybean) seeds; 1%,59.4%
same,% germination,Orford (Soybean) seeds; 1%,64%
same,germination rate higher than water,"Orford (Soybean) seeds; 1%, after 14 days",34%
same,% of seeds germinated,Orford (Soybean) seeds; […],29.6%
same,% germination,Orford (Soybean) seeds; […],54%
same,bacterial growth on treated seeds,Orford (Soybean) seeds; soybean seeds and blotters,did not appear to have major bacterial growth
same,Bacterial reduction,[5]; [8],100% and 96%
same,Total microbial reduction,[5]; [8],100% and 96%
same,Total microbial score,"[5]; AC Polaris seeds, inoculated w/ bacteria, 0.1%, 1 h",0
same,Total microbial score,"[5]; AC Polaris seeds, inoculated w/ bacteria, 0.1%, 1 h, listed as High valency silver nitrate 1",0.16
same,Bacteria score,[5]; [9],0
same,Fungi score,[5]; [9],0
same,Bacteria score,"[5]; AC Polaris seeds, inoculated w/ bacteria, 0.1%, 1 h, scored day 6 on scale 0-5, mean of 6 seeds, listed as High valency silver nitrate 1",0.16
same,Bacterial reduction,[5]; [10],41% and 78% and 60%
same,Fungal reduction,[5]; [10],78% and 75% and 100%
same,Total microbial reduction,[5]; [10],65% and 77% and 79%
same,Total microbial score,"[5]; Othello seeds, inoculated w/ bacteria, 0.1%, 1 h",1.83 and 1.32 and 1.66
same,# seeds germinated,[6]; 0.1%,53
same,% germination,[6]; 0.1%,35.3%
same,Day to 25% germination,[6]; 0.1%,5 days
same,# seeds germinated,[6]; 0.5%,53
same,% germination,[6]; 0.5%,35.3%
same,Day to 25% germination,[6]; 0.5%,5 days
same,germination higher than Apron Maxx RTA,"[6]; 1%, by day 10",54%
same,increase of germination compared with the negative control (sterile water),"[6]; 1%, by day 10",34.7%
same,# seeds germinated,[6]; 1%,91
same,% germination,[6]; 1%,60.7%
same,Day to 25% germination,[6]; 1%,5 days
same,# seeds germinated,[6]; […],51
same,% germination,[6]; […],43.0%
same,Day to 25% germination,[6]; […],5 days
same,PspHB-9 Planktonic cell counts,[2]; 100 ppm,0 log10
same,PspHB-9 Planktonic cell counts,[2]; 500 ppm,0 log10
same,PspHB-9 Planktonic cell counts,[2]; 1000 ppm,0 log10
same,eradication of planktonic,[2]; at the lowest concentration,100%
